Laboratory results taken from ChEMBL document CHEMBL4152367, “Discovery of a Potent Thiazolidine Free Fatty Acid Receptor 2 Agonist with Favorable Pharmacokinetic Properties” (J Med Chem, 2018).
Calls of active or inactive are those of the source. The rule behind the calls is not given here.

Tests used:
[1] = molecular target: T1, Free fatty acid receptor 3 (Homo sapiens) (UniProt O14843); test: Agonist activity at FFA3R (unknown origin) up to 100 uM; type: functional
T1 sequence (whole entry): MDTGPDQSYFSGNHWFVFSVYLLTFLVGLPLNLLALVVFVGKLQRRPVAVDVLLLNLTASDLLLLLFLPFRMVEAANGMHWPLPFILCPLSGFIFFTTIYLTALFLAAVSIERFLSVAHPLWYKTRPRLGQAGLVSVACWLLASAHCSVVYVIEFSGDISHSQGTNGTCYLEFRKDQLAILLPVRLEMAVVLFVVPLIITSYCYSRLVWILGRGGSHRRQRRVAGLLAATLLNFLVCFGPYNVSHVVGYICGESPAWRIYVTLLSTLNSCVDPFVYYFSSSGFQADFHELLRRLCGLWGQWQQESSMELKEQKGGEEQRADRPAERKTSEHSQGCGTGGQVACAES

[2] = molecular target: T2, Oxysterols receptor LXR-beta (Homo sapiens) (UniProt P55055); test: Antagonist activity at human LXRbeta expressed in Escherichia coli assessed as inhibition of T0901317-induced calcium flux at 10 uM by fluorimetry
T2 sequence (whole entry): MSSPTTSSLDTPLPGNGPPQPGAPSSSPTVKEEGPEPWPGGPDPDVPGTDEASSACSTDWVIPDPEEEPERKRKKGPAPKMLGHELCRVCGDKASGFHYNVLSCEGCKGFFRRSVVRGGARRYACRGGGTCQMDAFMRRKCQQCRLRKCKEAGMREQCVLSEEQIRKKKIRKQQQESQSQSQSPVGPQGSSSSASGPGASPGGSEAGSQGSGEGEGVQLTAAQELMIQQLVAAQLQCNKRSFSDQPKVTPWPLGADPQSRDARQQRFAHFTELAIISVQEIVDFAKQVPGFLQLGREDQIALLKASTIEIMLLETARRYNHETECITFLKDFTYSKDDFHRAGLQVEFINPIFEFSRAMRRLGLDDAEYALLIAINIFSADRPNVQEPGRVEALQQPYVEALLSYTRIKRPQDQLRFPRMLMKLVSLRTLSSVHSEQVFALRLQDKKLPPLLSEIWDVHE

[3] = molecular target: T3, Peroxisome proliferator-activated receptor alpha (Homo sapiens) (UniProt Q07869); test: Antagonist activity at human PPARalpha expressed in Escherichia coli assessed as inhibition of […]-induced calcium flux at 10 uM by alpha screen assay
T3 sequence (whole entry): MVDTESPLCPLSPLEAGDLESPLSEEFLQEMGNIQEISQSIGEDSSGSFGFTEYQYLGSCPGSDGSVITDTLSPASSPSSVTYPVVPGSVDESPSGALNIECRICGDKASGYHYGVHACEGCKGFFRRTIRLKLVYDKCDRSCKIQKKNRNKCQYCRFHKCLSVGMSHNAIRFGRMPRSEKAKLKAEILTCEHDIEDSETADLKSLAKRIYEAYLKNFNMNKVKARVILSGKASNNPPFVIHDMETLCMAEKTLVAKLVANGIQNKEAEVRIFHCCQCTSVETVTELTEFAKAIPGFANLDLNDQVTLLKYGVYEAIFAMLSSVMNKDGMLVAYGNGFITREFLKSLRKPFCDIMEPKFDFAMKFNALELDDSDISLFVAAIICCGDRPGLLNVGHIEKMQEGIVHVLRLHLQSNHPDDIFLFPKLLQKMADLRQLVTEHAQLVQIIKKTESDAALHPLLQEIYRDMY

[4] = molecular target: T4, Free fatty acid receptor 4 (Homo sapiens) (UniProt Q5NUL3); test: Agonist activity at human FFA4 receptor expressed in HEK293 cells assessed as induction of calcium flux at 10 uM by fluorimetry; type: functional, cell-based
T4 sequence (whole entry): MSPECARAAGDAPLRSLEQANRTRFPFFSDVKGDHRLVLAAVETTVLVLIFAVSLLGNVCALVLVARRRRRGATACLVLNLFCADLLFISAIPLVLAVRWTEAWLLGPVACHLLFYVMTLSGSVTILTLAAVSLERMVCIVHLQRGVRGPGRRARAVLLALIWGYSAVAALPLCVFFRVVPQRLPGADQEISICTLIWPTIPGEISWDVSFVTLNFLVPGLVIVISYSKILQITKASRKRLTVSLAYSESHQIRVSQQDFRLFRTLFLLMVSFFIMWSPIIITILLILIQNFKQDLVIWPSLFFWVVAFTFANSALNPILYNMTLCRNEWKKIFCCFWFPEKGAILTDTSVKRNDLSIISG

Activity [1]: inactive | inhibition [2]: inactive | inhibition [3]: inactive | Activity [4]: inactive
SMILES: Cc1noc(C)c1-c1ccc(C(=O)N2[C@@H](c3ccccc3Cl)SC[C@H]2C(=O)O)cc1
